The source of these data is patent publication US7563766B2, “Methods and compositions for the promotion of a hair growth utilizing actin binding peptides” (The United States of America as represented by the …, priority 2002, dated 2009).

The subject of one series is hair follicles. Description: Topical thymosin β4 on normal (unwounded) shaved rat skin. In kind it is in vivo. Conditions: 30 days after treatment. On the procedure: In these experiments, 8 week old female Sprague Dawley rats were utilized. Thymosin β4 was applied on the shaved backs of the animals at a concentration of 0.5 mg/ml in hydrogel three times per week (Monday, Wednesday and Friday). The hair of the animals was observed over 30 days. Some of the animals were sacrificed on day 7 after the initiation of treatment, while others were sacrificed on day 30 after initiation of treatment. Tissue sections were prepared using methods known in the art, as indicated above in Example 1. The tissue section samples were all read and compared on a blind basis by an observer trained in dermatology.
One study used shaved rats where thymosin β4 was applied topically on one side of the shaved area and on the opposing lateral side a control vehicle was applied. […] The number of anagen follicles was approximately two-fold greater than in rats treated with the control vehicle alone (see FIG. 7D). […] The increased number of hairs in the anagen phase was retained with continued tri-weekly treatment over 30 days. However, within 14 days of ceasing treatment, the number of active hair follicles decreased to control levels.

Series [1] concerns male patients between 18 and 41 years of age; post-menopausal women. As to conditions: cited from earlier work.
A further series relates to chick aortic arches. Description: Chick aortic arch vessel sprouting assay. It is filed as cell-based. Set-up: key to Sprouting: − = no activity; +/− = low activity; + = active; ++ = high activity. As to conditions: for Sprouting: Table 2 score; for activity in the assays (endothelial cell migration and vessel sprouting): statement covers both migration and sprouting assays. On the procedure: Chick aortic arch assay—The aortic arch of 13-day-old chick embryos was removed and placed in RPMI 1640. After removal of surrounding connective tissue, transverse sections of the arch were made (1 mm). The resulting aortic rings were carefully attached to the bottom of a 48-well plate, one ring per well, with 20-30 μl of Matrigel (Collaborative Biomedical Products). The rings were placed so that the lumen of each ring could be seen. More Matrigel was added onto the top of the rings to seal them in place. A 100 μl volume of human endothelial—SFM basal growth medium (Invitrogen) containing 1% penicillin streptomycin was added to each well. Thymosin β4, peptide fragments, and exogenous actin (Sigma Chemical Co.) were added to wells in serum-free medium, bringing the final volume of each well to 400 μl. ECGS (200 μg/ml) was used as a positive control. The plates were incubated for 24 hr at 37° C. Rings were fixed and stained with Diff-Quik solution II. Sprouting was scored in a blind assessment by an observer using 10× magnification on an Olympus microscope. Six wells were used for each condition tested, and each assay was done three times.

Series [2] concerns human umbilical vein endothelial cells. Description: HUVEC migration, Boyden chamber assay. It is filed as cell-based. Conditions: for Migration: Table 2 score. Also noted: key to Migration: − = no activity; +/− = low activity; + = active; ++ = high activity. As to the method:
Cells—HUVECs were isolated and used at passages 2-5. Grant et al., J. Cell Sci. 108:3685-3694 (1995). The cells were cultured in RPMI 1640 (Invitrogen, Carlsbad, Calif.) supplemented with 20% bovine calf serum (Hyclone Laboratories, Logan, Utah), 200 μg/ml of endothelial cell growth supplement (ECGS) (Collaborative Biomedical Products, Bedford, Mass.), 0.8 U/ml heparin sodium (Fisher Scientific, Pittsburgh, Pa.), penicillin/streptomycin (Invitrogen, Carlsbad, Calif.), 10 μg/ml gentamycin (Invitrogen, Carlsbad, Calif.), and 1% fungizone (Invitrogen, Carlsbad, Calif.).
Boyden chamber assay—HUVEC migration assays were conducted in a 48-well micro-chemotaxis chamber (Neuro Probe Inc., Cabin John, Md.) as previously described in Salcedo et al., J. Immunol. 166:7571-7578 (2001). Briefly, PVP-free polycarbonate membranes with 8 μm pores were coated with 50 μg/ml of rat tail collagen (BD Biosciences, Bedford, Mass.) in RPMI 1640 that contained 25 mM HEPES (Invitrogen, Carlsbad, Calif.) at 4° C. overnight. The membranes were dried at least 1 hr prior to use. HUVECs were serum-starved for 2 hr, harvested using Versene (Invitrogen, Carlsbad, Calif.), and resuspended in binding medium that contained RPMI 1640 with 1% BSA and 25 mM HEPES. The lower wells of the chamber were loaded with 1, 10, 100, and 1000 ng/ml of thymosin β4 or peptide fragments that were diluted in binding medium. Basic fibroblast growth factor (bFGF) (200 ng/ml) was used as a positive control. Cells were added to the upper portion of the chamber at a concentration of 50,000 cells per well. The chambers were incubated at 37° C. for 4 hr. The filters were fixed and stained using Diff-Quik (VWR, Bridgeport, N.J.). The cells that successfully migrated through the pores of the membrane were manually quantitated using a CK-2 Olympus microscope at 10× magnification. Each condition was assayed in triplicate, and the assay was repeated twice.

The mark [3] stands for this setting: 1 mg/day oral for 2 years, male patients 18 to 41 years.

Ends that are not written are not given here.

Turning to `CC[C@H](C)[C@H](NC(=O)[C@H](CCC(=O)O)NC(=O)[C@H](C)NC(=O)[C@H](CCSC)NC(=O)[C@H](CC(=O)O)NC(=O)[C@@H]1CCCN1C(=O)[C@H](CCCCN)NC(=O)[C@H](CC(=O)O)NC(=O)[C@H](CO)NC(C)=O)C(=O)N[C@@H](CCC(=O)O)C(=O)N[C@@H](CCCCN)C(=O)N[C@@H](Cc1ccccc1)C(=O)N[C@@H](CC(=O)O)C(=O)N[C@@H](CCCCN)C(=O)N[C@@H](CO)C(=O)N[C@@H](CCCCN)C(=O)N[C@@H](CC(C)C)C(=O)N[C@@H](CCCCN)C(=O)N[C@@H](CCCCN)C(=O)N[C@H](C(=O)N[C@@H](CCC(=O)O)C(=O)N[C@H](C(=O)N[C@@H](CCC(N)=O)C(=O)N[C@@H](CCC(=O)O)C(=O)N[C@@H](CCCCN)C(=O)N[C@@H](CC(N)=O)C(=O)N1CCC[C@H]1C(=O)N[C@@H](CC(C)C)C(=O)N1CCC[C@H]1C(=O)N[C@@H](CO)C(=O)N[C@@H](CCCCN)C(=O)N[C@@H](CCC(=O)O)C(=O)N[C@H](C(=O)N[C@H](C(=O)N[C@@H](CCC(=O)O)C(=O)N[C@@H](CCC(N)=O)C(=O)N[C@@H](CCC(=O)O)C(=O)N[C@@H](CCCCN)C(=O)N[C@@H](CCC(N)=O)C(=O)N[C@@H](C)C(=O)NCC(=O)N[C@@H](CCC(=O)O)C(=O)N[C@@H](CO)C(=O)O)[C@@H](C)CC)[C@@H](C)O)[C@@H](C)O)[C@@H](C)O` [Tβ4, Thymosin β4], in the series with hair follicles, the “change in the epidermis or in the thickness of the dermis” value is “little change” and the inflammatory cells entry is recorded as “some increase”.
Take `CC(C)(C)NC(=O)[C@H]1CC[C@H]2[C@@H]3CC[C@H]4NC(=O)C=C[C@]4(C)[C@H]3CC[C@]12C` [finasteride]: in series [1] (setting [3]), the “cases in which further hair loss was prevented” value is given as 83% and the “cases with visible hair growth” value is listed as 66%. Further, the “efficacy in post-menopausal women” value in series [1] (1 mg/day over 1 year) is “ineffective”. Moreover, in series [1] (human, in vivo), the side effects result was “lack of libido, lack of potency, and mild reduction in semen”.
For the molecule “Tβ4^1-8: proteolytic fragment of naturally occurring Tβ4, acSDKP DM (Ac-SDKPDM; UniProt P62328 2-7, looked up, fragment)”, in the series on chick aortic arches, the Sprouting result is listed as “−”; the “activity in the assays (endothelial cell migration and vessel sprouting)” value (shortened to “activity in the assays”) was “inactive”.
As to “Tβ4^1-16: synthetic, the first 15 amino acid residues of SEQ ID NO: 1 (SDKPDMAEIEKFDKS; ends and bridges not checked; listed as Bos taurus)”, in series [2], the Migration entry is given as “−”. In the series with chick aortic arches, the “vessel sprouting, in words” value is recorded as “very weak activity” and the Sprouting entry was “+/−”.
On to “Tβ4^1-28: proteolytic fragment of naturally occurring Tβ4, residues 1 to KN (SDKPDMAEIEKFDKSKLKKTETQEKN; not fully specified; Thymosin beta-4; UniProt P62328 2-27, looked up, fragment)”, for which, in the series with chick aortic arches, the Sprouting entry is “+/−”; the “activity in the assays” value is given as “generally highly active”.
For “Tβ4^7-43: proteolytic fragment of naturally occurring Tβ4, residues 7-43 (AEIEKFDKSKLKKTETQEKNPLPSKETIEQEKQAGES; Thymosin beta-4; UniProt P62328 8-44, looked up, fragment)”, the Migration entry in series [2] is on record as “++”. For the same molecule, in the series on chick aortic arches, the Sprouting entry is on record as “++”; the “activity in the assays” value is listed as “generally highly active”.
As for “Tβ4^10-28: synthetic, amino acid residues 10-28 of SEQ ID NO: 1 (EKFDKSKLKKTETQEKNPL; listed as Bos taurus)”, the Migration result in series [2] is “+”. For the same molecule, in the series with chick aortic arches, the Sprouting result is given as “++”; the “activity in the assays” value is given as “generally highly active”.
Take “Tβ4^13-43: proteolytic fragment of naturally occurring Tβ4, residues 13-43 (DKSKLKKTETQEKNPLPSKETIEQEKQAGES; Thymosin beta-4; UniProt P62328 14-44, looked up, fragment)”: in series [2], the Migration result is listed as “+”. In the series with chick aortic arches, the Sprouting result is recorded as “+/−”; the “activity in the assays” value was “generally highly active”.
“Tβ4^18-19: synthetic, amino acid residues 13-19 of SEQ ID NO: 1 (DKSKLKK; listed as Bos taurus)”: in the series on chick aortic arches, the Sprouting entry is reported as “−”; the “activity in the assays” value was “inactive”.
For “Tβ4^20-48: synthetic, amino acid residues 20-43 of SEQ ID NO: 1 (TETQEKNPLPSKETIEQEKQAGES; listed as Bos taurus)”, the Migration result in series [2] is given as “++”. For the same molecule, in the series with chick aortic arches, the Sprouting result is recorded as “+”; the “activity in the assays” value is reported as “generally highly active”.
Take “Tβ4^27-48: proteolytic fragment PLP SKETI EQEKQ AGES (PLPSKETIEQEKQAGES; Thymosin beta-4; UniProt P62328 28-44, looked up, fragment)”: the Migration result in series [2] is listed as “+”. The Sprouting entry in the series on chick aortic arches is “+/−”.
On to “Tβ4^Ala: naturally occurring β-thymosin, acADKP variant of Tβ4 (ADKPDMAEIEKFDKSKLKKTETQEKNPLPSKETIEQEKQAGES; Thymosin beta-4 N-terminal acetyl; UniProt P62328 2-44, looked up, variant S1A)”, for which, in the series on chick aortic arches, the Sprouting result is listed as “+”; the “activity in the assays” value is recorded as “active”.
In the case of “Tβ10: naturally occurring β-thymosin with conserved actin-binding domain (ADKPDMGEIASFDKAKLKKTETQEKNTLPTKETIEQEKRSEIS; UniProt P63313 2-44, looked up)”, in series [2], the Migration entry was “++”. In the series on chick aortic arches, the Sprouting entry is listed as “+”; the “activity in the assays” value was “active”.
Consider “Tβ15^18-28: synthetic peptide of thymosin β15 amino acids 13-23, DK SKLKK TNTE”, for which, in the series with chick aortic arches, the “vessel sprouting, in words” value is “active” and the Sprouting result is listed as “+”.
Consider “amino acid residues 17-22 of SEQ ID NO: 1: six amino acid residues 17-22 of thymosin β4, shorter actin binding sequence (LKKTET; listed as Bos taurus)”, for which, in series [2], the “endothelial cell migration, in words” value is reported as “promotes endothelial cell migration”.
In the case of “thymosin β4-sulfoxide (SDKPDMAEIEKFDKSKLKKTETQEKNPLPSKETIEQEKQAGES; Thymosin beta-4 methionine sulfoxide; UniProt P62328 2-44, looked up) [Tβ4^(O), sulfoxide form prepared from the naturally occurring peptide]”, the Migration entry in series [2] is “++”. Further, in the series with chick aortic arches, the Sprouting entry is recorded as “++”; the “activity in the assays” value is on record as “active”.
